Reference: patent US9302999B2, “Substituted triazoles as herbicides” (E. I. DU PONT DE NEMOURS AND COMPANY, priority 2012, dated 2016)

What was measured:
Assay type in all cases: in vivo
corn (Zea mays) = test: Test A pre-/postemergence: corn
Summary of the method: (§1)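 Each species received preemergence soil-directed spraying and, at the same time, postemergence treatment of seedlings 2–10 cm tall. Formulation: non-phytotoxic solvent mixture including surfactant. Response assessed visually about ten days on, relative to untreated controls, 0–100 scale.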

[1] = system: barnyardgrass (Echinochloa crus-galli); test: Test A pre-/postemergence: barnyardgrass
Summary of the method: as §1

[2] = system: morningglory (Ipomoea spp.); test: Test A pre-/postemergence: morningglory
Summary of the method: as §1

[3] = system: barnyardgrass (Echinochloa crus-galli); test: Test B flooded paddy: barnyardgrass; conditions: Flood, applied to paddy water at 2-leaf stage, visually evaluated after 13 to 15 days
Summary of the method: (§2)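 Paddy-water application: seedlings at 2-leaf stage, flood depth 3 cm maintained for the test duration. Evaluation after 13–15 days in the greenhouse by eye relative to controls; 0–100 scale.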

[4] = system: velvetleaf (Abutilon theophrasti); test: Test A pre-/postemergence: velvetleaf
Summary of the method: as §1

[5] = system: crabgrass, large (large crabgrass, Digitaria sanguinalis); test: Test A pre-/postemergence: crabgrass, large
Summary of the method: as §1

[6] = system: ducksalad (Heteranthera limosa); test: Test B flooded paddy: ducksalad; conditions: Flood, applied to paddy water at 2-leaf stage, visually evaluated after 13 to 15 days
Summary of the method: as §2

[7] = system: sedge, umbrella (small-flower umbrella sedge Cyperus difformis); test: Test B flooded paddy: sedge, umbrella; conditions: Flood, applied to paddy water at 2-leaf stage, visually evaluated after 13 to 15 days
Summary of the method: as §2

[8] = system: wheat (Triticum aestivum); test: Test A pre-/postemergence: wheat
Summary of the method: as §1

[9] = system: pigweed (Amaranthus retroflexus); test: Test A pre-/postemergence: pigweed
Summary of the method: as §1

[10] = system: foxtail, giant (giant foxtail, Setaria faberii); test: Test A pre-/postemergence: foxtail, giant
Summary of the method: as §1

rice (Oryza sativa) = test: Test B flooded paddy: rice; conditions: Flood, applied to paddy water at 2-leaf stage, visually evaluated after 13 to 15 days
Summary of the method: as §2

[11] = Postemergence, 125 g ai/ha, 0 to 100 scale, 0 is no effect, 100 is complete control
[12] = Postemergence, 500 g ai/ha, visual rating on 0 to 100 scale (0 no effect, 100 complete control), approximately ten days
[13] = Preemergence, 125 g ai/ha, 0 to 100 scale (0 no effect, 100 complete control)
[14] = Preemergence, 500 g ai/ha, 0 to 100 scale, 0 is no effect, 100 is complete control
[15] = Preemergence, 125 g ai/ha, 0 to 100 scale where 0 is no effect and 100 is complete control
[16] = Preemergence, 500 g ai/ha, 0 to 100 scale (0 no effect, 100 complete control)

Cc1nn(-c2ccnc(F)c2)nc1C(=O)c1cccc(C(F)(F)F)c1 [Compound 3]
90: Crabgrass, Large plant response rating [5, 12] | Plant response rating, Crabgrass, Large [5, 13] | Pigweed plant response rating [9, 11] | Foxtail, Giant plant response rating [10, 12] | Plant response rating, Foxtail, Giant [10, 13]
50: Barnyardgrass plant response rating [1, 12] | Plant response rating, Barnyardgrass [1, 14] | Plant response rating, Morningglory [2, 14] | Velvetleaf plant response rating [4, 11]
70: Plant response rating, Pigweed [9, 13]
40: Crabgrass, Large plant response rating [5, 11] | Wheat plant response rating [8, 12] | Plant response rating, Wheat [8, 14]
20: Corn plant response rating (corn (Zea mays); [11])
60: Velvetleaf plant response rating [4, 12]
0: Plant response rating, Corn (corn (Zea mays); [13]) | Plant response rating, Morningglory [2, 13] | Plant response rating, Barnyardgrass (0 to 100 scale, 0 is no effect, 100 is complete control) ([3]; 250 g ai/ha) | Plant response rating, Velvetleaf [4, 13] | Plant response rating, Ducksalad (0 to 100 scale, 0 is no effect, 100 is complete control) ([6]; 250 g ai/ha) | Plant response rating, Sedge, Umbrella (0 to 100 scale, 0 is no effect, 100 is complete control) ([7]; 250 g ai/ha) | Plant response rating, Wheat [8, 13] | Plant response rating, Rice (0 to 100 scale, 0 is no effect, 100 is complete control) (rice (Oryza sativa); 250 g ai/ha)
100: Morningglory plant response rating [2, 12] | Plant response rating, Crabgrass, Large [5, 14] | Pigweed plant response rating [9, 12] | Plant response rating, Pigweed [9, 14] | Plant response rating, Foxtail, Giant [10, 14]
10: Plant response rating, Corn (corn (Zea mays); [14]) | Plant response rating, Barnyardgrass [1, 13] | Plant response rating, Velvetleaf [4, 14]
30: Corn plant response rating (corn (Zea mays); [12]) | Barnyardgrass plant response rating [1, 11] | Morningglory plant response rating [2, 11] | Wheat plant response rating [8, 11] | Foxtail, Giant plant response rating [10, 11]

COCc1nn(-c2ccc(F)cc2)nc1Oc1ccnc(C(F)(F)F)c1 [Compound 161]
20: Plant response rating, Barnyardgrass [1, 15] | Plant response rating, Rice (0 to 100 scale, 0 is no effect, 100 is complete control) (rice (Oryza sativa); 125 g ai/ha)
100: Plant response rating, Crabgrass, Large [5, 15] | Plant response rating, Crabgrass, Large [5, 16] | Plant response rating, Pigweed [9, 11] | Pigweed plant response rating [9, 12] | Plant response rating, Pigweed [9, 15] | Plant response rating, Pigweed [9, 16] | Plant response rating, Foxtail, Giant [10, 15] | Plant response rating, Foxtail, Giant [10, 16]
80: Velvetleaf plant response rating [4, 12] | Plant response rating, Sedge, Umbrella (0 to 100 scale, 0 is no effect, 100 is complete control) ([7]; 125 g ai/ha)
30: Corn plant response rating (corn (Zea mays); [12]) | Plant response rating, Barnyardgrass [1, 11] | Plant response rating, Morningglory [2, 11] | Wheat plant response rating [8, 12]
70: Barnyardgrass plant response rating [1, 12] | Plant response rating, Crabgrass, Large [5, 11]
10: Plant response rating, Corn (corn (Zea mays); [11]) | Plant response rating, Corn (corn (Zea mays); [15]) | Plant response rating, Corn (corn (Zea mays); [16]) | Plant response rating, Morningglory [2, 15] | Plant response rating, Morningglory [2, 16] | Plant response rating, Wheat [8, 11] | Plant response rating, Wheat [8, 16]
0: Plant response rating, Barnyardgrass (0 to 100 scale, 0 is no effect, 100 is complete control) ([3]; 125 g ai/ha) | Plant response rating, Velvetleaf [4, 15] | Plant response rating, Ducksalad (0 to 100 scale, 0 is no effect, 100 is complete control) ([6]; 125 g ai/ha) | Plant response rating, Wheat [8, 15]
40: Plant response rating, Velvetleaf [4, 11]
60: Plant response rating, Barnyardgrass [1, 16] | Plant response rating, Foxtail, Giant [10, 11]
50: Morningglory plant response rating [2, 12] | Plant response rating, Velvetleaf [4, 16]
90: Crabgrass, Large plant response rating [5, 12] | Foxtail, Giant plant response rating [10, 12]

CSc1ccccc1-n1nc(C)c(C(=O)c2cccc(C(F)(F)F)c2)n1 [Compound 6]
10: Foxtail, Giant plant response rating [10, 12]
0: Corn plant response rating (corn (Zea mays); [11]) | Corn plant response rating (corn (Zea mays); [12]) | Plant response rating, Corn (corn (Zea mays); [13]) | Plant response rating, Corn (corn (Zea mays); [14]) | Barnyardgrass plant response rating [1, 11] | Barnyardgrass plant response rating [1, 12] | Plant response rating, Barnyardgrass [1, 13] | Plant response rating, Barnyardgrass [1, 14] | Morningglory plant response rating [2, 11] | Morningglory plant response rating [2, 12] | Plant response rating, Morningglory [2, 13] | Plant response rating, Morningglory [2, 14] | Plant response rating, Barnyardgrass (0 to 100 scale, 0 is no effect, 100 is complete control) ([3]; 250 g ai/ha) | Velvetleaf plant response rating [4, 11] | Velvetleaf plant response rating [4, 12] | Plant response rating, Velvetleaf [4, 13] | Plant response rating, Velvetleaf [4, 14] | Crabgrass, Large plant response rating [5, 11] | Plant response rating, Crabgrass, Large [5, 13] | Plant response rating, Crabgrass, Large [5, 14] | Plant response rating, Ducksalad (0 to 100 scale, 0 is no effect, 100 is complete control) ([6]; 250 g ai/ha) | Plant response rating, Sedge, Umbrella (0 to 100 scale, 0 is no effect, 100 is complete control) ([7]; 250 g ai/ha) | Wheat plant response rating [8, 11] | Wheat plant response rating [8, 12] | Plant response rating, Wheat [8, 13] | Plant response rating, Wheat [8, 14] | Pigweed plant response rating [9, 11] | Plant response rating, Pigweed [9, 13] | Plant response rating, Pigweed [9, 14] | Foxtail, Giant plant response rating [10, 11] | Plant response rating, Foxtail, Giant [10, 13] | Plant response rating, Foxtail, Giant [10, 14] | Plant response rating, Rice (0 to 100 scale, 0 is no effect, 100 is complete control) (rice (Oryza sativa); 250 g ai/ha)
30: Pigweed plant response rating [9, 12]
20: Crabgrass, Large plant response rating [5, 12]
